Test results as given in PMC6114962, “A Phase Ib, open-label, dose-finding study of alpelisib in combination with paclitaxel in patients with advanced solid tumors” (Oncotarget, 2018).
Like-named read-outs stand apart in the source and are kept apart here.

Key:
[1] = Plasma pharmacokinetics of paclitaxel and alpelisib in Cycle 1; type: in vivo, human; conditions: for Tmax / AUC(0-t) / Cmax / AUC(0-inf): human, plasma; for AUC(0-t): read-out: AUC0–24, geometric mean (CV%); for Cmax: read-out: Cmax, geometric mean (CV%); for AUC(0-inf): read-out: AUCinf, geometric mean (CV%)
Description: (§1) PK samples for alpelisib were collected from all patients.
(§2) Analysis sets were as follows: full analysis set (FAS), all patients who received at least one dose of alpelisib and/or paclitaxel; safety set, all patients who received at least one dose of alpelisib and/or paclitaxel and had at least one valid post-baseline safety assessment; dose-determining set (DDS), all patients from the safety set who during Cycle 1 either met the minimum exposure criterion and had sufficient safety evaluations, or experienced a DLT; and pharmacokinetic analysis set, all patients in the FAS who received at least one dose of alpelisib and/or paclitaxel and had at least one evaluable concentration measurement.

[2] = test system: patients; conditions: cited from earlier work
[3] = test system: patients with advanced solid tumors; assay: Phase Ib dose finding: dose-limiting toxicities and MTD of alpelisib QD plus paclitaxel; type: in vivo, human; conditions: with paclitaxel 80 mg/m^2 QW; BLRM with EWOC
Procedure: In the dose-finding phase, the primary objective was to determine the MTD and/or recommended Phase II dose (RP2D) of alpelisib QD when administered with paclitaxel 80 mg/m^2 QW in patients with advanced solid tumors, and the secondary objectives were to assess safety and tolerability and to characterize the pharmacokinetic (PK) profile.
Patients received oral alpelisib QD in 28-day cycles (300, 250, or 150 mg) and paclitaxel 80 mg/m^2 QW as a 1-hour (±15 minutes) IV infusion after standard premedication (per local standard practice). Patients received treatment until disease progression, unacceptable toxicity, patient decision, death, or discontinuation for any other reason. […]
An adaptive 5-parameter Bayesian logistic regression model (BLRM) with escalation with overdose control (EWOC) guided the dose-finding of each combination. […] Available data were analyzed after Cycle 1 per cohort of patients to decide the dose for the next cohort and/or determine the MTD/RP2D. […]

[4] = test system: patients with advanced solid tumors; conditions: cited from earlier work
[5] = test system: patients with advanced solid tumors; type: in vivo
Procedure: Patients received oral alpelisib QD in 28-day cycles (300, 250, or 150 mg) and paclitaxel 80 mg/m^2 QW as a 1-hour (±15 minutes) IV infusion after standard premedication (per local standard practice). Patients received treatment until disease progression, unacceptable toxicity, patient decision, death, or discontinuation for any other reason.
as §1, §2

[6] = test system: patients; set-up: method as in PMID 22184370; conditions: paclitaxel 80 mg/m^2 QW, 1-hour IV infusion; cited from earlier work
[7] = po, oral alpelisib 150 mg QD + paclitaxel, C1D8
[8] = po, oral alpelisib 250 mg QD + paclitaxel, C1D8
[9] = po, oral alpelisib 300 mg QD + paclitaxel, C1D8
[10] = alpelisib 150 mg plus paclitaxel
[11] = alpelisib 250 mg plus paclitaxel
[12] = alpelisib 300 mg plus paclitaxel
[13] = iv, 80 mg/m^2, paclitaxel 80 mg/m^2 IV, C1D1, alpelisib 150 mg + paclitaxel cohort
[14] = iv, 80 mg/m^2, paclitaxel 80 mg/m^2 IV, C1D1, alpelisib 250 mg + paclitaxel cohort
[15] = iv, paclitaxel 80 mg/m^2 IV, C1D8, alpelisib 150 mg + paclitaxel cohort
[16] = paclitaxel 80 mg/m^2 IV, C1D1, alpelisib 300 mg + paclitaxel cohort
[17] = paclitaxel 80 mg/m^2 IV, C1D8, alpelisib 250 mg + paclitaxel cohort

Cc1nc(NC(=O)N2CCC[C@H]2C(N)=O)sc1-c1ccnc(C(C)(C)C(F)(F)F)c1 [alpelisib]
impact of steady-state alpelisib exposure on paclitaxel metabolism ([1]; alpelisib 150–300 mg): no impact | Cmax and AUC0-24 after oral administration versus dose ([1]; alpelisib 150–300 mg QD): increased in a dose-dependent manner | Tmax ([1]; oral, Cycle 1 Day 8, alpelisib 150–300 mg, read-out: Median time to maximum concentration (Tmax) across dose levels): 3.17 to 4.17 h | AUC(0-t) [1, 7]: 13800 ng·h/mL | Cmax [1, 7]: 1390 ng/mL | Tmax ([1]; po, oral alpelisib 150 mg QD + paclitaxel, C1D8, read-out: Tmax, median (range)): 3.17 h | AUC(0-t) [1, 8]: 27700 ng·h/mL | Cmax [1, 8]: 3750 ng/mL | Tmax ([1]; po, oral alpelisib 250 mg QD + paclitaxel, C1D8, read-out: Tmax, median (range)): 3.23 h | AUC(0-t) [1, 9]: 37100 ng·h/mL | Cmax [1, 9]: 3000 ng/mL | Tmax ([1]; po, oral alpelisib 300 mg QD + paclitaxel, C1D8, read-out: Tmax, median (range)): 4.17 h | MTD of alpelisib with nab-paclitaxel ([2]; Phase I study (N=10)): not reached | recommended Phase II dose, alpelisib ([2]; plus nab-paclitaxel 100 mg/m^2 IV weekly): 350 mg daily | MTD of alpelisib when administered with paclitaxel [3]: 150 mg QD | Grade 3/4 AE: hyperglycemia ([4]; single-agent alpelisib 30–450 mg QD or 120–200 mg twice daily, N=134): 23.9% | all-grade treatment-related AE: hyperglycemia ([4]; single-agent alpelisib, N=134): 51.5% | maximum tolerated dose (MTD), single agent ([4]; single-agent alpelisib, advanced solid tumors): 400 mg once daily (QD) | hyperglycemia DLT during dose finding ([4]; single-agent alpelisib, seven of 68 evaluable patients): 10.3% | dose from which preliminary anti-tumor activity was exhibited ([4]; single-agent alpelisib, solid tumors): ≥ 270 mg QD | all-grade treatment-related AE: decreased appetite ([4]; single-agent alpelisib): 41.8% | all-grade treatment-related AE: diarrhea ([4]; single-agent alpelisib): 40.3% | all-grade treatment-related AE: nausea ([4]; single-agent alpelisib): 50.0% | all-grade treatment-related AE: vomiting ([4]; single-agent alpelisib): 31.3% | rate of alpelisib dose interruption [5, 10]: 66.7% | rate of alpelisib dose reduction (at least one) [5, 10]: 22.2% | rate of alpelisib dose interruption [5, 11]: 75.0% | rate of alpelisib dose reduction (at least one) [5, 11]: 50.0% | rate of alpelisib dose interruption [5, 12]: 66.7% | rate of alpelisib dose reduction (at least one) [5, 12]: 66.7%

CC(=O)O[C@H]1C(=O)[C@@]2(C)[C@H]([C@H](OC(=O)c3ccccc3)[C@]3(O)C[C@H](OC(=O)[C@H](O)[C@@H](NC(=O)c4ccccc4)c4ccccc4)C(C)=C1C3(C)C)[C@]1(OC(C)=O)CO[C@@H]1C[C@@H]2O [paclitaxel]
plasma drug exposure (AUCinf and Cmax), Cycle 1 Day 1 versus Cycle 1 Day 8 ([1]; absence versus presence of alpelisib, except Cmax at alpelisib 300 mg C1D8): comparable | AUC(0-inf) [1, 13]: 4360 ng·h/mL | Cmax [1, 13]: 2650 ng/mL | AUC(0-inf) [1, 14]: 4320 ng·h/mL | Cmax [1, 14]: 2770 ng/mL | Cmax ([1]; iv, 80 mg/m^2, paclitaxel 80 mg/m^2 IV, C1D1, alpelisib 300 mg + paclitaxel cohort): 2700 ng/mL | AUC(0-inf) [1, 15]: 4370 ng·h/mL | Cmax [1, 15]: 2790 ng/mL | Cmax ([1]; iv, paclitaxel 80 mg/m^2 IV, C1D8, alpelisib 250 mg + paclitaxel cohort): 2960 ng/mL | AUC(0-inf) ([1]; iv, paclitaxel 80 mg/m^2 IV, C1D8, alpelisib 300 mg + paclitaxel cohort): 4470 ng·h/mL | Tmax ([1]; iv, paclitaxel 80 mg/m^2 IV, C1D8, alpelisib 300 mg + paclitaxel cohort, read-out: Tmax, median (range)): 0.75 h | Tmax, median (range) ([1]; paclitaxel 80 mg/m^2 IV, C1D1, alpelisib 150 mg + paclitaxel cohort): 1 (0.87–1.17) [8] hours | Tmax, median (range) ([1]; paclitaxel 80 mg/m^2 IV, C1D1, alpelisib 250 mg + paclitaxel cohort): 1 (0.45–1.05) [3] hours | AUCinf, geometric mean (CV%) [1, 16]: 5000 (24) [5] ng·hr/ml | Tmax, median (range) [1, 16]: 1 (0.5–1.28) [5] hours | Tmax, median (range) ([1]; paclitaxel 80 mg/m^2 IV, C1D8, alpelisib 150 mg + paclitaxel cohort): 1 (0.5–1.07) [9] hours | AUCinf, geometric mean (CV%) [1, 17]: 5000 (42.7) [2] ng·hr/ml | Tmax, median (range) [1, 17]: 0.8 (0.5–1.17) [3] hours | Cmax, geometric mean (CV%) ([1]; paclitaxel 80 mg/m^2 IV, C1D8, alpelisib 300 mg + paclitaxel cohort): 1250 (114) [6] ng/ml | all-grade AE: abdominal pain [6]: 33% | all-grade AE: alopecia [6]: 36% | all-grade AE: fatigue [6]: 47% | all-grade AE: nausea [6]: 31% | all-grade AE: peripheral neuropathy [6]: 31%
